Like-named read-outs stand apart in the source and are kept apart here.
Tests used:
EAAT2 [1] = target: T1, EAAT2 (Homo sapiens, UniProt P43004); assay: [3H]D-aspartate uptake by EAAT2 transiently expressed in C17.2 cells; assay type: cell-based
T1 construct: expressed in transfected cells; host or cells: C17.2 cells, transient transfection with FuGENE6
Procedure: The excitatory amino acid transporter 2 (EAAT2) was transiently expressed in C17.2 cells using an AAV-based vector pAM-CAG-EAAT3-WPRE as described in the literature (Esslinger). Cells between passages 10-20 were seeded at 5×10^4 cells/well in 12 well plates and grown in complete DMEM supplemented with 10% fetal bovine serum, 1 mM sodium pyruvate, 0.1 mM nonessential amino acids solution. At 24 hours after plating, cells were transfected using FuGENE6 Transfection Reagent (Roche, Indianapolis, Ind.) in a ratio of 4 μL of FuGENE6 to 3 μg of purified plasmid DNA in accordance with manufacturers instructions. The cells were used in the transport assays 24 hours following transfection as described by Esslinger. Briefly, transfected C17.2 cells were grown in DMEM containing 10% FCS in a humid atmosphere of 5% CO2. Near-confluent cells (plated at 5×10^4 cells/well) were rinsed with a physiological buffer (138 mM NaCl, 11 mM D-glucose, 5.3 mM KCl, 0.4 mM KH2PO4, 0.3 mM Na2HPO4, 1.1 mM CaCl2, 0.7 mM MgSO4, 10 mM HEPES, pH 7.4) and allowed to pre-incubate at 37° C. for 5 minutes.
Three types of binding experiments were performed: a) single concentrations of compounds 1 or 6 were added simultaneously to the cell assay with 1 μM ^3H-D-aspartate, b) six or more concentrations of compound 6 were added simultaneously to the cell assay with 1 μM ^3H-D-aspartate; and c) six or more concentrations of compound 6 were pre-incubated with cells for 25 minutes, after which 1 μM ^3H-D-aspartate was added to the cell to initiate the assay. […] The cells were dissolved in 0.4 N NaOH for 24 hours and analyzed for radioactivity by liquid scintillation counting and protein by the BCA (Pierce) method. For each type of uptake assay experiment, they were conducted with at least 2 cell-containing tissue culture wells, with duplicate samples from each well analyzed for radioactivity. […] Initial studies confirmed that uptake quantified in this manner was linear with time and protein levels and also that uptake in un-transfected C17.2 cells was indistinguishable from background. […]

[2] = brain penetration and metabolism in live mice, LC/MS-MS of compound 6 in brain and plasma; assay type: in vivo, C57BL/6 mice; conditions: for levels of compound 6 (hydrolyzed compound 1) per gram brain tissue: mouse, 10 mg/Kg tail vein injection, all time points 1-90 min, ester vs acid administered
Procedure: A series of separate experiments were performed with compounds 1 or 6 in groups of C57BL/6 mice (6-8 weeks old; Charles River, Wilmington, Mass.) as a function of dose and time, where concentrations of compound 6 in brain and plasma (nanogram of compound 6/g of brain tissue or blood) were measured by liquid chromatography/mass spectrometry (LC/MS-MS) detection by literature methods (Chernet et al., Life Sci. 78:340-346 (2005)). In general, doses of compounds 1 and 6 were prepared at 1, 5 or 10 mg/Kg in a homogenous solution composed of 3% dimethyl sulfoxide and 97% […] pH 7.4. Doses (0.25 mL volume) were administered by tail vein injection to groups (n≧3) of mice. Mice were sacrificed at 1, 3 10, 30, 60, 90 and 100 minutes post-injection. For some groups of mice, brains were removed, weighed, homogenized (polytron, in SDS and water) extracted with acetonitrile and then centrifuged where the acetonitrile supernatant was collected. For other groups of mice, blood was collected ([…]), weighed, and then the samples were centrifuged where the supernatant plasma was collected and extracted with acetonitrile with and without 0.1% formic acid. To validate the extraction methods, other control (non-dosed) mice brains and plasma samples were spiked with various amounts (5-25,000 ng) of compound 6 and were processed in a similar fashion and then analyzed as described below. Respective acetonitrile extracts were diluted with methanol and 20 μL portions were then subjected to analytical reverse phase (C-18 analytical column, isocratic acetonitrile/water solvent) high performance liquid chromatography (HPLC), where the HPLC fractions were quantified using a mass spectrometer set to selectively monitor the mass-to-charge ratio of singly protonated compound 6 (C17H16FN2O3, exact mass: 315.11). In other analyses, a standard curve of compound 6 was constructed (5-25,000 nanogram mass range) and analyzed similarly. Quantities (nanograms, ng) of compound 6 from the dosed treated mouse brain and plasma samples were determined by correlation to the quantitative control spike method of detection (above) and also confirmed by interpolations against the compound 6 standard curve. Data was imported into Microsoft Excel and plotted as nanogram (ng) of detected hydrolyzed compound 1 (that is, compound 6/gram (g) brain tissue or plasma versus time (minutes). The data from the mouse experiments are shown in FIGS. 4 and 5.
Shown in FIG. 4 are the results from 10 mg/Kg administration of the ester compound 1 (shown as black bars) or the acid compound 6 (shown as grey bars) relative to the amounts of hydrolyzed compound 1 (that is, compound 6) per gram brain tissue at time points 1, 3, 10, 60 and 90 minutes post-injection. […]

[3] = system: panel of central nervous system protein binding sites defined in FIG. 8; assay: competitive radioligand binding panel of central nervous system protein binding sites (FIG. 8); parameters: key: No Activity: no greater than or equal to 50% inhibition of binding; conditions: 1 micromole assay concentration, duplicate
Procedure: In separate in vitro competitive pharmacological assays performed in duplicate, compounds 1 and 6 at 1 micromole concentrations were evaluated against the panel of central nervous system protein binding sites that are defined in FIG. 8. As noted in FIG. 8, the assays utilized specific established radioligands for the respective competition binding assays, and respective assay ligand standards that afforded respective pharmacological inhibition binding curves of half maximal inhibitory concentration (IC50) values. […] In other words, the concentrations of compounds 1 and 6 that would be required to inhibit the FIG. 8 radioligand bindings at their respective protein sites would have to be greater than 1 micromole concentration.

EAAT2 [4] = target: T2, EAAT2 (Rattus norvegicus, UniProt P31596); assay: tracer PET brain imaging and quantitative EAAT2 detection in rat; assay type: in vivo, rat (Sprague-Dawley); conditions: 5 mg/Kg dose 10 minutes before tracer 2, all CNS ROIs, all times post-injection
T2 construct: from tissue; host or cells: live male Sprague-Dawley rat brain and spinal cord (in vivo PET)
T2 sequence (P31596 whole entry): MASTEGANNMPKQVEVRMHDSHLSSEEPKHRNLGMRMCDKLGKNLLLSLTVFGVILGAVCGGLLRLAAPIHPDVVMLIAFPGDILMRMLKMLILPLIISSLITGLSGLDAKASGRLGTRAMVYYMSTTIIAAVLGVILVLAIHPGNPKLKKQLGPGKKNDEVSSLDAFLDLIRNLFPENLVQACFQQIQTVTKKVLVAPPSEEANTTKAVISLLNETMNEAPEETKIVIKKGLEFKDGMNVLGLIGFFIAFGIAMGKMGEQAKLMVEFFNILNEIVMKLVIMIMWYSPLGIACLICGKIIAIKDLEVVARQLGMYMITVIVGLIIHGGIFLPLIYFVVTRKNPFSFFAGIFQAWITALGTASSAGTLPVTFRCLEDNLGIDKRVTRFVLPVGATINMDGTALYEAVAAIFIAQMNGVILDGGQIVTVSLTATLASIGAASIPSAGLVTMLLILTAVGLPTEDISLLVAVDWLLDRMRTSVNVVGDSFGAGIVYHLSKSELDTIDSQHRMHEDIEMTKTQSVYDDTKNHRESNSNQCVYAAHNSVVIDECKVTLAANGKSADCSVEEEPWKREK
Procedure: As an example of the tracer compound of the invention, rodent (rat) quantitative in vivo PET imaging trials are presented employing the tracer compound 2 of Example VI. The in vivo PET imaging was performed in parallel with magnetic resonance (MR) and computed axial tomography (CAT, CT) imaging methods, in which the latter two imaging methods afforded anatomical tissue information for co-registration to the acquired tracer quantitative PET data. […] Two rodent imaging trials (A-B) were performed employing two age-matched male Sprague-Dawley subjects. The age of the subjects were nearly identical to those described in the most recent rat (Sprague-Dawley, amongst others) stereotaxic brain atlas (Paxinos et al., “[…],” Academic Press: Burlington, Mass. (2007))
providing high confidence levels for identification and definition of explicit brain cerebral fine tissue structures as regions of interest (ROIs) for quantitative analysis, and as a function of three-dimensional (3D) co-registration of cerebral soft tissue identification by MR scan analysis and landmark anatomical features from CAT data.
The PET data were acquired with a Siemens Inveon microPET scanner (ca. 1.5 mm spatial resolution). Rodent subject tail vein tracer 2 injection volumes (Table 1) used the tracer 2 dose formulation described in Example VI. […]

T1 sequence (P43004 whole entry): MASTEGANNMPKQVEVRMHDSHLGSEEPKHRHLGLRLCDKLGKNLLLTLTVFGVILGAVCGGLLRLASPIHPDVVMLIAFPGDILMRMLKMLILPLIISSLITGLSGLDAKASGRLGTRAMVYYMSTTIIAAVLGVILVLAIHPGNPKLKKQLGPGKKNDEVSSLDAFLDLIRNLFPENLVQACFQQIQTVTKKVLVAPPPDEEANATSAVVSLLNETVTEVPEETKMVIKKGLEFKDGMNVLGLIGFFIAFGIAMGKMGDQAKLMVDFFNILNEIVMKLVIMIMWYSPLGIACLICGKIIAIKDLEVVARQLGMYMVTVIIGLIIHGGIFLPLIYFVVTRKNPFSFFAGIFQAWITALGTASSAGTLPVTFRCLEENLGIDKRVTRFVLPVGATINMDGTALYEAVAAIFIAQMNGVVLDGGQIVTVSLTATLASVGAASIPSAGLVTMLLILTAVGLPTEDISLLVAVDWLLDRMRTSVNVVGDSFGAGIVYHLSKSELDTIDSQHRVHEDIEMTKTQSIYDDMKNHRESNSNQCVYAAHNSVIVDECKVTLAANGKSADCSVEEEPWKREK

| SMILES | inhibition of 1 μM [3H]D-aspartate uptake by EAAT2 (EAAT2 [1]) | levels of compound 6 (hydrolyzed compound 1) per gram brain tissue [2] | inhibition of binding of FIG. 8 radioligands at their protein binding sites [3] | reduction of tissue SUV signals of tracer 2 by pre-administration (challenge) (EAAT2 [4]) | IC50 (EAAT2 [1]; IC50, EAAT2 interaction, first experimental in vitro conditions (single concentrations, simultaneous addition)) [µM] | inhibition of 1 μM [3H]D-aspartate uptake by EAAT2 (EAAT2 [1]; concentrations up to 10 μM, added simultaneously with 3H-D-aspartate, 5 min) | amount of compound 6 detected in mouse brain, 5 mg/Kg versus 1 mg/Kg ([2]; mouse brain, 3, 10 and 100 minutes post-injection) | amount of compound 6 detected in plasma, 5 mg/Kg versus 1 mg/Kg ([2]; mouse plasma, 3 and 10 minutes post-injection) |
| --- | --- | --- | --- | --- | --- | --- | --- | --- |
| N[C@@H](CC(=O)Nc1ccc2c(c1)Cc1cc(F)ccc1-2)C(=O)O [compound 6, (S)-2-Amino-4-(7-fluoro-9H-fluoren-2-ylamino)-4-oxo-butanoic acid] | almost completely inhibited all uptake | lower levels | No Activity |  |  |  |  |  |
| COC(=O)[C@@H](N)CC(=O)Nc1ccc2c(c1)Cc1cc(F)ccc1-2 [compound 1, (S)-Methyl 2-amino-4-(7-fluoro-9H-fluoren-2-ylamino)-4-oxobutanoate] |  | higher levels | No Activity | 2-3 fold | > 10 | little or no inhibition | dose amount dependence | dose amount dependence |

— US9499472B2, “Aspartylamide inhibitors of excitatory amino acid transporters” (priority 2012, dated 2016)
